Laboratory results taken from patent US8207216B2, “Benzofuran-3-yl(indol-3-yl) maleimides as potent GSK3 inhibitors” (The Board of Trustees of the University of Illinois, priority 2006, dated 2012).
Blank lines part the entries; values can stand above or below the compound they belong to.

What was measured:
CDK2 = CDK2 (Homo sapiens, UniProt P24941); assay: Inhibition of various kinases (% inhibition); assay type: biochemical
Description: (§1) Additional examples of selectivity are illustrated in Table 4.

GSK3α = GSK3α (Homo sapiens, UniProt P49840); assay: Inhibition of various kinases (% inhibition); assay type: biochemical
Description: as §1

PKCβ2 = PKCβ2 (Homo sapiens, UniProt P05771); assay: Inhibition of various kinases (% inhibition); assay type: biochemical
Description: as §1

PDK1 = target: T1, PDK1 (Homo sapiens, UniProt O15530); assay: Inhibition of various kinases (% inhibition); assay type: biochemical
T1 sequence (O15530 1-556): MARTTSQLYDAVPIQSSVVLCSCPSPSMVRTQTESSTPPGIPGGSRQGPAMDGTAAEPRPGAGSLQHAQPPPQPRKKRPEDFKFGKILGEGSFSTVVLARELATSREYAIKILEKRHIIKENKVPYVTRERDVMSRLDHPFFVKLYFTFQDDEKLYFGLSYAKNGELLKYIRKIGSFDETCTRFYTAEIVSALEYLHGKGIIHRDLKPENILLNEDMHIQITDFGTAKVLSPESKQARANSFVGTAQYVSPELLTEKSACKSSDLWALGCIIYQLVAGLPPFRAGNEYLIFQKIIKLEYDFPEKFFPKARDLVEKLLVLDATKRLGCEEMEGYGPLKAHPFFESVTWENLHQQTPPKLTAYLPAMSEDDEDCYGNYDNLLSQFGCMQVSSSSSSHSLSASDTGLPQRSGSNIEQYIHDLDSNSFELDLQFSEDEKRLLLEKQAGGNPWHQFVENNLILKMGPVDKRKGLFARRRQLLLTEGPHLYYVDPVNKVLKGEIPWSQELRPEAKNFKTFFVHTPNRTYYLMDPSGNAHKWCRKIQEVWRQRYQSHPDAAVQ
Description: as §1

CDK-2/cyclinE = CDK-2/cyclinE (Homo sapiens, UniProt P24941); assay: CDK-2/CyclinE inhibition (Reaction Biology); assay type: biochemical; settings: for IC50 Ratio CDK-2/cyclinE GSK-3β: selectivity ratio; for IC50: tested at Reaction Biology, Inc.
[1] = target: T2, recombinant human His6-GSK-3β (Homo sapiens, UniProt P49841); assay: GSK-3β kinase assay, [γ32P] transfer to primed glycogen synthase peptide; assay type: biochemical; settings: for IC50: 10 μM ATP, 10 μM pGSM peptide, 30 minutes at 30° C., read-out: IC50 (nM), GSK-3β inhibition;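 for all read-outs here: phosphate incorporation quantified by liquid scintillation counting of the filters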
T2 construct: His6; purchased EMD Biosciences

[2] = tested on: pancreatic cancer cell lines; assay: Proliferation and survival of pancreatic cancer cells (overall statements); assay type: cell-based; settings: based on data of Table 5
Procedure: (§2) The pancreatic cancer cell lines BxPc-3, HupT3, MiaPaCa-2, Panc 04.03, and SU86.86 were obtained from ATCC (Rockville, Md.) and were grown in medium (DMEM or RPMI) containing 10% fetal calf serum and L-glutamine. Pancreatic cancer cells were plated out in duplicate into 6-wells of a 96-well microtiter plate at 2.5−4×10^3 cells per well. Four-hours post plating, individual wells were treated with diluent (DMSO) or varying concentrations of commercial compounds, AR-A014418 and SB216763, or the indicated GSK inhibitors of this invention from a concentration of 1 nM to 50 microM. […] The IC50s were calculated using XLfit (IDBS Limited, Guildford, UK).

MIAPaCa-2 = assay: Antiproliferation MTS assay, pancreatic cancer cells; assay type: cell-based; settings: Homo sapiens
HupT3 = assay: as above; assay type: cell-based; settings: Homo sapiens
BXPC-3 = assay: as above; assay type: cell-based; settings: Homo sapiens
OVCA432 = assay: Antiproliferation assay, ovarian cancer cells; assay type: cell-based; settings: ovarian cancer cell proliferation
Procedure: as §2
(§3) Similar antiproliferation assays were performed using ovarian cancer cells. Compound 40 is of particular interest for inhibition of ovarian cancer cell proliferation.

SKOV3 = assay: Antiproliferation assay, ovarian cancer cells; assay type: cell-based; settings: Homo sapiens, SK-OV-3; ovarian cancer cell proliferation
Procedure: as §2, §3

CDK-2/cyclinA = CDK-2/cyclinA (Homo sapiens, UniProt P24941); assay: CDK panel (Reaction Biology); assay type: biochemical; settings: tested at Reaction Biology, Inc.
CDK-4/cyclinD1 = CDK-4/cyclinD1 (Homo sapiens, UniProt P11802); assay: CDK panel (Reaction Biology); assay type: biochemical; settings: tested at Reaction Biology, Inc.
CDK-6/cyclinD3 = CDK-6/cyclinD3 (Homo sapiens, UniProt Q00534); assay: CDK panel (Reaction Biology); assay type: biochemical; settings: tested at Reaction Biology, Inc.
CDK-1/cyclinB = CDK-1/cyclinB (Homo sapiens, UniProt P06493); assay: CDK panel (Reaction Biology); assay type: biochemical; settings: tested at Reaction Biology, Inc.
C57BL/6J mice = assay: Amphetamine/chlordiazepoxide hyperactivity model of mania, open field locomotor activity; assay type: in vivo; settings: 5-ING-135 50 mg/kg, 5 min pretreatment; amphetamine 4 mg/kg + chlordiazepoxide 2.5 mg/kg; 60 min
Procedure: Hyperactivity models are often used to mimic the mania associated with bipolar disorder.
Certain benzofuran-based ligands of this invention were studied in a novel mouse model of mania that has recently been validated with several clinically effective mood stabilizers. […] Mice were then injected with amphetamine (4 mg/kg) or amphetamine (4 mg/kg) and chlordiazepoxide (2.5 mg/kg) and locomotor activity was monitored for 60 min. The open field is a square box surrounded by an array of infra-red beams and their behavior is automatically recorded for 60 minutes in the open field test chamber (10.75″×10.75″×8″H with infra-red (I/R) array, model ENV 510, MED Associates). After this period the animals were returned to their home cages and then to the main colony.
Control treatments are as indicated. FIG. 1B illustrates similar locomotion activity data of treated mice measured in cm over 5 minute intervals for 60 minutes.

[3] = HuP-T3, as reported in Gaisina et al. (2009) J. Med. Chem. 52(7), 1853-1863

Chain of GSK3α (P49840 whole entry, species assumed): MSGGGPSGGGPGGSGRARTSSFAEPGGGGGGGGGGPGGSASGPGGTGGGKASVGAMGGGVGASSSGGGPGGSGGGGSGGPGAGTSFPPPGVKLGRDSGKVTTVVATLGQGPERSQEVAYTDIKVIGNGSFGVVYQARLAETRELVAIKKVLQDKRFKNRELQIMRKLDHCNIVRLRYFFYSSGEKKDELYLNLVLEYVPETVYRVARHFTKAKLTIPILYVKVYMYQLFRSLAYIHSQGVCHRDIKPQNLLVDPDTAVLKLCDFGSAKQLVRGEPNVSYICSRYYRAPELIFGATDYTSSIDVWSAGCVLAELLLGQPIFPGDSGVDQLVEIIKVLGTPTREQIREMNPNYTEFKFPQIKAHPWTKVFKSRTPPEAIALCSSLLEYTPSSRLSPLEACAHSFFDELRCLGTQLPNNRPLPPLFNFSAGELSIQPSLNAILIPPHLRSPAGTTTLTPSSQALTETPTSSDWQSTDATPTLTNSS
T2 sequence (P49841 whole entry): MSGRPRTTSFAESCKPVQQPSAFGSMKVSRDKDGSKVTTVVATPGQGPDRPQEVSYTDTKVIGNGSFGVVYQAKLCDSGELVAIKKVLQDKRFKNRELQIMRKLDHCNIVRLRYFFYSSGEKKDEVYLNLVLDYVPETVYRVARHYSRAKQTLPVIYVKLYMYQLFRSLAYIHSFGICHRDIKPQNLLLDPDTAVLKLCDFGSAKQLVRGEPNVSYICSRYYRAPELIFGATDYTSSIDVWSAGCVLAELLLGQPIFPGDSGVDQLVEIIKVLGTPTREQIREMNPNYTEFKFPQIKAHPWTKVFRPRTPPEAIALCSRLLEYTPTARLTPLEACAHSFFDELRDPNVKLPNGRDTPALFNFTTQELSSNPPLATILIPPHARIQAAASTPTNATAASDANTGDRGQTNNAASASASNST
Chain of PKCβ2 (P05771 1-673 isoform P05771-2): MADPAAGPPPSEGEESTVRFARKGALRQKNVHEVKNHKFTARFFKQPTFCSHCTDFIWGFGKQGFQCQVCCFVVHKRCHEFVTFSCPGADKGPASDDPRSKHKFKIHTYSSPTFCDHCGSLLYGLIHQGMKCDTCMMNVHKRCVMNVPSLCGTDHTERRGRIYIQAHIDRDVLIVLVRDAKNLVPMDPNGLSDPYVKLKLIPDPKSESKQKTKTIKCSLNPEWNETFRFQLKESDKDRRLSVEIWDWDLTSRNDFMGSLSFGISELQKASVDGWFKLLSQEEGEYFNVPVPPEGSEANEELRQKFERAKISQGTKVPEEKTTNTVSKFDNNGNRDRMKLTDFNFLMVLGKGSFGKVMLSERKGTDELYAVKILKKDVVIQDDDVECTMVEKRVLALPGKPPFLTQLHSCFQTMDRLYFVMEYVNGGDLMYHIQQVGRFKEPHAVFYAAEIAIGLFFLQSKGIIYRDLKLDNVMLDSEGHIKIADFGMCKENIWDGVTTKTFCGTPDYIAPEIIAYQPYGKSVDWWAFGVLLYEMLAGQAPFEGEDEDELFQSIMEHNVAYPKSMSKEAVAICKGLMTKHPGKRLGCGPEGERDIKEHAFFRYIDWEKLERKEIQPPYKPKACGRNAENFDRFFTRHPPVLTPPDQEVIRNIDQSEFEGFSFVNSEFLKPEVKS
Chain of CDK-6/cyclinD3 (Q00534 whole entry, species assumed): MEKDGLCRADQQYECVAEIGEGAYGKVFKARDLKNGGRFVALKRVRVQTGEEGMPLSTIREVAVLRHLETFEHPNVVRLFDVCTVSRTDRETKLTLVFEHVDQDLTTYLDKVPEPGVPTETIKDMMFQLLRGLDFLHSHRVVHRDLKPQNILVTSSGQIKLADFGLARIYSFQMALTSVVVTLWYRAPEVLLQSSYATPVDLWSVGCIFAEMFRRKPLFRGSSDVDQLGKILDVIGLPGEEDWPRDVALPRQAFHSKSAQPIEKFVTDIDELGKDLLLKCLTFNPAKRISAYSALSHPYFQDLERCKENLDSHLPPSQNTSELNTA
Chain of CDK-6/cyclinD3 (P30281 whole entry partner, species assumed): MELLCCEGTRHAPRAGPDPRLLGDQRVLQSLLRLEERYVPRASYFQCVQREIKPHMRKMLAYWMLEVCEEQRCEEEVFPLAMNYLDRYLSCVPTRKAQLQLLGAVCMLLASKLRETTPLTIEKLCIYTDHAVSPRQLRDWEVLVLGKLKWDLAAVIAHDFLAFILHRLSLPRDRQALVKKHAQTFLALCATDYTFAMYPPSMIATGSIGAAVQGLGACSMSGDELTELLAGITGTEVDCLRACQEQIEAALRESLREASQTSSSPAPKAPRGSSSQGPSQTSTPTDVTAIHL
Chain of CDK-1/cyclinB (P06493 whole entry, species assumed): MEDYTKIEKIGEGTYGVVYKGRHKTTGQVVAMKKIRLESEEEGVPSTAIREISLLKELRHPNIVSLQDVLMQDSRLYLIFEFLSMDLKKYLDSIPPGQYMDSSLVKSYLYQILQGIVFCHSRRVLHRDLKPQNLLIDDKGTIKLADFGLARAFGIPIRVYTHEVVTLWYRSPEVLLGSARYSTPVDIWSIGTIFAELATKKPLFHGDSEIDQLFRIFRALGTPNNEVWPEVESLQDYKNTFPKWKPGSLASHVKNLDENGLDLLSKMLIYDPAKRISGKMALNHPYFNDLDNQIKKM
Chain of CDK-1/cyclinB (P14635 whole entry partner, species assumed): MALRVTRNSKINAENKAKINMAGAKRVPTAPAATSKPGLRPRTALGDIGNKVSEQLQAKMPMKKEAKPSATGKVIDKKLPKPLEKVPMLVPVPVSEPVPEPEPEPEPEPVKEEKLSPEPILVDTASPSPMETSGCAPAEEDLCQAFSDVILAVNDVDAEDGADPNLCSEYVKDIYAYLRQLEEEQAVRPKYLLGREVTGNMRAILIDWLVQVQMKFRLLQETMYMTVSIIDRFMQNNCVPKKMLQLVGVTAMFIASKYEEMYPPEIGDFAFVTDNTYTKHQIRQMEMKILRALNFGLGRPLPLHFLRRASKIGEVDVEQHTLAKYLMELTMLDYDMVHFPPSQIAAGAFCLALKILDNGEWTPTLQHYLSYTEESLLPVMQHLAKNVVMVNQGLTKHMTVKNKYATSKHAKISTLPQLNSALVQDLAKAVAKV
Chain of CDK-4/cyclinD1 (P11802 whole entry, species assumed): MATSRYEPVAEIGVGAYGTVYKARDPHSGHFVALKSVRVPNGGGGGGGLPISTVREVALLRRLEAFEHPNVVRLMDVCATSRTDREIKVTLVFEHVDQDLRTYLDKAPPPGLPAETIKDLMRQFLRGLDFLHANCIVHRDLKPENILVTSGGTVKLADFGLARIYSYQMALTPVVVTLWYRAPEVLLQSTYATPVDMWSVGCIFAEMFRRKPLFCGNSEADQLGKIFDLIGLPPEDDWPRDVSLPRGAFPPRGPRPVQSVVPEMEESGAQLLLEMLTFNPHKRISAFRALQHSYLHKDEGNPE
Chain of CDK-4/cyclinD1 (P24385 whole entry partner, species assumed): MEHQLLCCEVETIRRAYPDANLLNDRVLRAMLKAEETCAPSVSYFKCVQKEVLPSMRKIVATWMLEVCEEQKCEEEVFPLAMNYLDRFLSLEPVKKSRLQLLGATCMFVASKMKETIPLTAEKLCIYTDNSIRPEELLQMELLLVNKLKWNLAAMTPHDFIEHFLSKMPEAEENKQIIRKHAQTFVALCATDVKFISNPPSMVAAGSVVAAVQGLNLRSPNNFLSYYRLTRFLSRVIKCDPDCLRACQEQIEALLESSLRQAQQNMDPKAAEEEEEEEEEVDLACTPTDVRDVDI

Compound: 3-Benzofuran-3-yl-4-[5-bromo-1-(3-hydroxy-propyl)-1H-indol-3-yl]-pyrrole-2,5-dione [Compound 20]
% Inhibition CDK2 (CDK2; 1 μM): 76%
% Inhibition CDK2 (CDK2; 10 μM): 90%
% Inhibition GSK3α (GSK3α; 1 μM): 58%
% Inhibition GSK3α (GSK3α; 10 μM): 100%
% Inhibition PKCβ2 (PKCβ2; 1 μM): 8%
% Inhibition PKCβ2 (PKCβ2; 10 μM): 62%
% Inhibition PDK1 (PDK1; 1 μM): 7%
% Inhibition PDK1 (PDK1; 10 μM): −1%
IC50 Ratio CDK-2/cyclinE GSK-3β (CDK-2/cyclinE): 150
IC50 (CDK-2/cyclinE): 1160 nM
Ki [1]: 5 nM
IC50 [1]: 7.5 ± 1.1 nM

IC50 (MIAPaCa-2; MIA PaCa-2, as reported in Gaisina et al. (2009) J. Med. Chem. 52(7), 1853-1863): 34000 ± 2200 nM
IC50 (MIAPaCa-2; MIA PaCa-2, 72 hrs, MTS): 34000 nM
IC50 (HupT3; [3]): > 50000 nM
IC50 (HupT3; HuP-T3, 72 hrs, MTS): > 50000 nM
IC50 (BXPC-3; BXPC-3, as reported in Gaisina et al. (2009) J. Med. Chem. 52(7), 1853-1863): > 50000 nM
IC50 (BXPC-3; BXPC-3, 72 hrs, MTS): > 50000 nM
IC50 [1]: 16.2 ± 3.9 nM
Compound: Cn1cc(C2=C(c3coc4ccc(F)cc34)C(=O)NC2=O)c2cc(C#CC3CC3)ccc21 [Compound 38, 3-(5-Cyclopropylethynyl-1-methyl-1H-indol-3-yl)-4-(5-fluoro-benzofuran-3-yl)-pyrrole-2,5-dione]
Inhibition of pancreatic cancer cell proliferation compared with AR-A014418 and SB216768 [2]: more effective inhibition of pancreatic cancer cell proliferation than these reference compounds

Compound: Cn1cc(C2=C(c3coc4ccccc34)C(=O)NC2=O)c2cc(I)ccc21 [Compound 28, 3-Benzofuran-3-yl-4-(5-iodo-1-methyl-1H-indol-3-yl)-pyrrole-2,5-dione]
IC50 (OVCA432): 20000 nM
IC50 (SKOV3): 26700 nM
IC50 (HupT3; [3]): > 50000 nM
IC50 (HupT3; HuP-T3, 72 hrs, MTS): > 50000 nM
IC50 (CDK-2/cyclinE): 1070 nM
IC50 [1]: 15.5 ± 3.5 nM

Compound: Cn1cc(C2=C(c3coc4cc(CO)ccc34)C(=O)NC2=O)c2cc(Br)ccc21 [Compound 22, 3-(5-Bromo-1-methyl-1H-indol-3-yl)-4-(6-hydroxymethyl-benzofuran-3-yl)-pyrrole-2,5-dione]
IC50 (OVCA432): 14200 nM
IC50 (SKOV3): 51500 nM
IC50 (CDK-2/cyclinE): 337 nM
IC50 (CDK-2/cyclinA): 0.55 µM
IC50 (CDK-4/cyclinD1): 1.08 µM
IC50 (CDK-6/cyclinD3): 0.51 µM
IC50 (CDK-1/cyclinB): 0.93 µM

IC50 (MIAPaCa-2; MIA PaCa-2, 72 hrs, MTS): > 50000 nM
inhibition at 1 µM (CDK2; 1 μM): 68%
inhibition at 10 µM (CDK2; 10 μM): 100%
inhibition at 1 µM (GSK3α; 1 μM): 89%
inhibition at 10 µM (GSK3α; 10 μM): 100%
inhibition at 1 µM (PKCβ2; 1 μM): 24%
inhibition at 10 µM (PKCβ2; 10 μM): 74%
inhibition at 1 µM (PDK1; 1 μM): 14%
inhibition at 10 µM (PDK1; 10 μM): 27%
IC50 [1]: 9.6 ± 4 nM
Compound: C#Cc1ccc2c(c1)c(C1=C(c3coc4ccccc34)C(=O)NC1=O)cn2C [Compound 36, 3-Benzofuran-3-yl-4-(5-ethynyl-1-methyl-1H-indol-3-yl)-pyrrole-2,5-dione]
Inhibition of hyperactivity produced by amphetamine/chlordiazepoxide (locomotor activity) (C57BL/6J mice): exhibited inhibition of the hyperactivity

Compound: Cn1cc(C2=C(c3coc4ccccc34)C(=O)NC2=O)c2ccccc21 [Compound 1, 3-Benzofuran-3-yl-4-(1-methyl-1H-indol-3-yl)-pyrrole-2,5-dione]
Inhibition of pancreatic cancer cell proliferation compared with AR-A014418 and SB216768 [2]: more effective inhibition of pancreatic cancer cell proliferation than these reference compounds
IC50 (MIAPaCa-2; MIA PaCa-2, 72 hrs, MTS): 3000 nM
IC50 Ratio CDK-2/cyclinE GSK-3β (CDK-2/cyclinE): 40
IC50 (CDK-2/cyclinE): 1410 nM
IC50 [1]: 35 ± 9 nM

IC50 (MIAPaCa-2; MIA PaCa-2, 72 hrs, MTS): 14000 nM
IC50 (HupT3; HuP-T3, 72 hrs, MTS): > 50000 nM
IC50 (BXPC-3; BXPC-3, 72 hrs, MTS): > 50000 nM
IC50 [1]: 131 ± 22 nM
Compound: N#Cc1ccc2c(c1)c(C1=C(c3coc4cc(F)c(F)cc34)C(=O)NC1=O)cn2CC1CC1 [Compound 35, 1-Cyclopropylmethyl-3-[4-(5,6-difluoro-benzofuran-3-yl)-2,5-dioxo-2,5-dihydro-1H-pyrrol-3-yl]-1H-indole-5-carbonitrile]
